# How the values were obtained:
# [1] = Metabolite profiling in mouse hepatocytes and MLM; format: in vitro ADME; conditions: for % T0 parent response, minor metabolites: mouse, matrix not stated; for % total metabolite response: MLM 1 mg/ml, 1 μM; for maximal metabolite abundance, % of T0 parent (LC-MS/MS response): mouse hepatocytes and MLM
# Procedure: (§1) Suspended hepatocyte incubations for the purposes of metabolite identification and CLint determination were conducted as described by [Wood et al. (2018)] in round-bottomed 350 μl 96-well polypropylene plates on a PHMP thermoshaker (Grant Instruments (Cambridge) Ltd. (Shepreth, UK)) at 37 °C and 900 rpm. […] Individual wells were quenched with 120 μl of methanol containing internal standard over a time course (Table 1) and an aliquot removed for analysis.
# (§2) Prior to initiation of the reaction by the addition of NADPH (final concentration 1 mM), an aliquot was removed from each incubation and quenched in ice cold methanol containing internal standard (referred to as T0). NADPH was subsequently added to this solution for matrix matching. The remaining reaction (with addition of NADPH) was allowed to proceed for 60 min. At 0.5, 5, 15, 30 and 60 min aliquots were sampled and quenched as above. Incubations were conducted in singlicate; control incubations (substituting PBS for NADPH) were conducted simultaneously.
# (§3) For the purpose of metabolite identification, samples were analysed using a Dionex Ultimate 3000 UHPLC system coupled to a ThermoScientific Q Exactive Plus orbitrap mass spectrometer (Thermo Fisher Scientific Inc., Waltham, USA). Separation of analytes was achieved using an Acquity UPLC HSS T3 column (1.8 μm, 100 × 2.1 mm) (Waters, Elstree, UK) at a temperature of 50 °C and a binary mobile phase gradient at a flow rate of 0.4 ml/min. Initial conditions comprised 10% solvent A (0.1% formic acid in water), 90% solvent B (methanol); this was ramped to 95% A at 12 min, immediately returned to initial conditions and held for the remaining 3 min of the method. The UV absorbance of samples at 230 nm and 260 nm was monitored using a Dionex Ultimate 3000 diode array detector. Sample analysis was by electrospray atmospheric pressure ionization combined with full scan acquisition in positive ion mode over a mass range 80–1200 m/z. The capillary voltage was 3.5 kV; desolvation gas and capillary temperatures were 450 °C and 275 °C respectively; sheath, aux and sweep gas flow rates were 55, 15 and 3 respectively. Full MS/dd-MS^2 (full MS scan followed by data dependent MS/MS) and Full MS/AIF (full MS scan followed by all ion fragmentation) workflows were used in combination.
# (§4) Identification of metabolites and elucidation of their proposed structures was undertaken with the aid of the software Compound Discoverer (v2.0.0.303, Thermo Fisher Scientific Inc., Waltham, USA). RAW data files containing accurate mass data and fragmentation spectra generated in the acquisition software Chromeleon (v7.2 SR3 (7553), Thermo Fisher Scientific Inc., Waltham, USA) were input into Compound Discoverer and processed using the targeted workflow described in Fig. 1 of the Appendix. The final time point of a parallel incubation of a different compound was used as a sample blank and any chromatographic peaks identified with the same m/z and retention time as in this sample were marked as background compounds and therefore not considered as potential metabolites. The Compound Discoverer application combines accurate mass data, isotope pattern matching and predicted biotransformations based on the parent compound's structure to generate a series of expected and unexpected compounds or metabolites. These were manually filtered using a typical criteria of peak area greater than or equal to 5000 counts per sec; compound identified in samples of at least three time points and peak area ratio of compound in Tx relative to T0 greater than or equal to 2, where Tx represents any given time point. […] The fragmentation spectra of these analytes were compared to those of the parent to facilitate structural interpretation of biotransformations. […]
# [2] = Metabolite profiling in human hepatocytes and HLM; format: in vitro ADME; conditions: for metabolite abundance, % of T0 parent (LC-MS response): HLM only
# Procedure: as §1, §2, §3, §4
# [3] = Metabolite profiling in rat hepatocytes and RLM; format: in vitro ADME
# Procedure: as §1, §2
# (§5) For the purpose of metabolite identification, samples were analysed using a Dionex Ultimate 3000 UHPLC system coupled to a ThermoScientific Q Exactive Plus orbitrap mass spectrometer (Thermo Fisher Scientific Inc., Waltham, USA). […] The UV absorbance of samples at 230 nm and 260 nm was monitored using a Dionex Ultimate 3000 diode array detector. […]
# [4] = Metabolite profiling in dog hepatocytes and DLM; format: in vitro ADME; conditions: dog hepatocytes and microsomes of both sexes
# Procedure: as §1, §2, §5
# [5] = molecular target: T1, FLT3 (Homo sapiens, UniProt P36888); assay: KINOMEscan Kd determination against FLT3; format: binding; conditions: 11-point 3-fold dilution series, top concentration 5 μM
# T1 sequence (P36888 27-993): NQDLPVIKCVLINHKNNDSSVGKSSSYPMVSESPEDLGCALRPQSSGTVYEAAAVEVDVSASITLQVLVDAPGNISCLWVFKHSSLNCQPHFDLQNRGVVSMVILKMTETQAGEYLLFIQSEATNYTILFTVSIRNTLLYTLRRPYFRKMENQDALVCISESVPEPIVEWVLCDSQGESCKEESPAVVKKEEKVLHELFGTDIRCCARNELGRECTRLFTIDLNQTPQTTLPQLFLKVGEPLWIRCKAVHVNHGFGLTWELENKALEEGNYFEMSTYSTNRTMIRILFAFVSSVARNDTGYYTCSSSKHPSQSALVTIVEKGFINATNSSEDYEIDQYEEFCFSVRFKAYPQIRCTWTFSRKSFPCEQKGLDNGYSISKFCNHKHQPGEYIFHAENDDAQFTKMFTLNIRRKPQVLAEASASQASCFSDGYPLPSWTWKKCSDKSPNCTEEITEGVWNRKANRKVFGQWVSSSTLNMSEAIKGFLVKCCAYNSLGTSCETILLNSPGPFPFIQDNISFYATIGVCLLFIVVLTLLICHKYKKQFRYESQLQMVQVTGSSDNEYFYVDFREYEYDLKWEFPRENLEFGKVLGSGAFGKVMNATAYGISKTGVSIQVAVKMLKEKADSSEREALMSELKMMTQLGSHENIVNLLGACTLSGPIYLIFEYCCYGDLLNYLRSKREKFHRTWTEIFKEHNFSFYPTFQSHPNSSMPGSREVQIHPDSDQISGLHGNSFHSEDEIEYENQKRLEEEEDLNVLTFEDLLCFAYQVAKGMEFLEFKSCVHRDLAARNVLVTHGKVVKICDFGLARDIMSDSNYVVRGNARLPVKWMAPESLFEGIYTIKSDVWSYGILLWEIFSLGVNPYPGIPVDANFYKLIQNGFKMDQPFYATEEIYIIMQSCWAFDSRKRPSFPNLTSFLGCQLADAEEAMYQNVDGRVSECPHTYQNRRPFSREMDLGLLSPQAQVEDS
# Procedure: (§6) Kds were determined using an 11-point 3-fold compound dilution series (top concentration 5 μM) with three DMSO control points.
# [6] = molecular target: T2, Aurora-A (Homo sapiens, UniProt O14965); assay: KINOMEscan Kd determination against Aurora-A; format: binding; conditions: 11-point 3-fold dilution series, top concentration 5 μM
# T2 sequence (O14965 1-403): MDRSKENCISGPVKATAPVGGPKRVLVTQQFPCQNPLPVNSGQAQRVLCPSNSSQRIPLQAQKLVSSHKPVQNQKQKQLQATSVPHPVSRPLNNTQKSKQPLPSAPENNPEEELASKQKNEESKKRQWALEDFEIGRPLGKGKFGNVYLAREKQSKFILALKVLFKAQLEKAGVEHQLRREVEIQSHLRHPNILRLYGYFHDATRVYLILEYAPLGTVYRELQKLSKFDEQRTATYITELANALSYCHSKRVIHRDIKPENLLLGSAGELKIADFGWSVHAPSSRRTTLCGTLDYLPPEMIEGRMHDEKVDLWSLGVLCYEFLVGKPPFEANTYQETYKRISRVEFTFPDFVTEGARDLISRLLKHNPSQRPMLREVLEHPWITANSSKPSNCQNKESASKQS
# Procedure: as §6
# [7] = molecular target: Aurora-B (Homo sapiens, UniProt Q96GD4); assay: KINOMEscan Kd determination against Aurora-B; format: binding; conditions: 11-point 3-fold dilution series, top concentration 5 μM
# Sequence of Aurora-B (Q96GD4 whole entry): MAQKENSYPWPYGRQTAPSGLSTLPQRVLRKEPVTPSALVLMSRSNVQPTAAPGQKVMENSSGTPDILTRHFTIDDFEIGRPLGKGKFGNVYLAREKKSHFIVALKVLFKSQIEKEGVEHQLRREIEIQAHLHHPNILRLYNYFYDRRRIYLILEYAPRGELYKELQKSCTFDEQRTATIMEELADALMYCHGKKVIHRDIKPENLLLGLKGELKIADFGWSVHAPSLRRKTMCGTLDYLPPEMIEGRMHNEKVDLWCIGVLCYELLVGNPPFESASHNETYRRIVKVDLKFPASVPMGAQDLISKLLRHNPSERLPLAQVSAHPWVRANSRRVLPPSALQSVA
# Procedure: as §6
# [8] = molecular target: T3, FLT3-ITD (Homo sapiens, UniProt P36888, ITD); assay: KINOMEscan Kd determination against FLT3-ITD; format: binding; conditions: 11-point 3-fold dilution series, top concentration 5 μM
# T3 sequence (P36888 564-993): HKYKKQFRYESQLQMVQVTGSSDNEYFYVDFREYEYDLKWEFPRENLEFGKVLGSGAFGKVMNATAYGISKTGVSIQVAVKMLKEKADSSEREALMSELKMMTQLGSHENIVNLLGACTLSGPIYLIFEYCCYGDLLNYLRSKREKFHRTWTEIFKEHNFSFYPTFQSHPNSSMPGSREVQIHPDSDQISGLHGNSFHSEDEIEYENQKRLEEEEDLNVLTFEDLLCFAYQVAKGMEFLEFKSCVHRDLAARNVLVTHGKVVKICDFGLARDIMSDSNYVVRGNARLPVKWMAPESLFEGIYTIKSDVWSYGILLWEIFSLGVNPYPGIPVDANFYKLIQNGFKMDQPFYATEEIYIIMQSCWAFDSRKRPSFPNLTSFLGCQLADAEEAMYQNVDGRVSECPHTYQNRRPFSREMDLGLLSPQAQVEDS
# Procedure: as §6
smiles,measurement,setting,value
Cc1n[nH]cc1-c1nc2c(N3CCNCC3)c(Cl)cnc2[nH]1 [Compound M6],"% T0 parent response, minor metabolites",[1],< 2%
same,"metabolite abundance, % of T0 parent (LC-MS response)",[2],< 2%
Cc1nn(C)cc1-c1nc2c(N3CC[N+]([O-])(Cc4ccc(Cl)cc4)CC3)c(Cl)cnc2[nH]1 [Compound M2],% total metabolite response,[1]; within the first 30 min of incubation,> 25%
same,"maximal metabolite abundance, % of T0 parent (LC-MS/MS response)",[1],> 10%
same,% total metabolite response,"[2]; HLM 1 mg/ml, 1 μM, 60 min incubation",3.5%
Cc1nn(C)cc1-c1nc2c(NCCNCc3ccc(Cl)cc3)c(Cl)cnc2[nH]1 [Compound M4],"metabolite abundance, % of parent","[3]; RLM, at most",< 2%
same,"maximal metabolite abundance, % of T0 parent (LC-MS/MS response)",[3]; rat hepatocytes,8–10%
same,"metabolite abundance, % of parent LC-MS response at T0",[2]; human hepatocytes and HLM,< 2%
Cc1n[nH]cc1-c1nc2c(N3CCN(Cc4ccc(Cl)cc4)CC3)c(Cl)cnc2[nH]1 [Compound M3],"maximal metabolite abundance, % of T0 parent (LC-MS/MS response)",[4],> 10%
same,"% T0 parent response, minor metabolites",[1],< 2%
same,"metabolite abundance, % of parent LC-MS response at T0",[2]; human hepatocytes and HLM,< 2%
Cc1nn(C)cc1-c1nc2c(NCCN)c(Cl)cnc2[nH]1 [Compound M7],"maximal metabolite abundance, % of T0 parent (LC-MS/MS response)",[1],> 10%
same,"metabolite abundance, % of T0 parent (LC-MS response)",[2],< 2%
Cc1nn(C)cc1-c1nc2c(N3CCNCC3)c(Cl)cnc2[nH]1 [Compound M1],Kd,[5],7.9 nM
same,Kd,[6],33 nM
same,% total metabolite response,[1]; peak of initial increase,up to 7%
same,Kd,[7],130 nM
same,"metabolite abundance, % of parent LC-MS response at T0","[2]; HLM, final sampled time point",10.6%
same,"metabolite abundance, % of parent LC-MS response at T0",[2]; human hepatocytes and HLM,approximately 10%
same,"metabolite abundance, % of parent LC-MS response at T0","[2]; human hepatocytes, final sampled time point",9.4%
same,Kd,[8],82 nM
